Each structure is given as a SMILES string.

This data set in a line: Octanol-water partition coefficient, log P of the compound. In kind it is physicochemical.
The term logP denotes a log measure of how a compound divides between an organic and an aqueous phase. Higher therefore signals a more lipophilic compound. Turning to `COC(=O)CN1C(=O)c2c(C)nc3ccccc3c2C1=O`, the lipophilicity (logP) is 1.73.

`COC(=O)CN1C(=O)c2c(C)nc3ccc(F)cc3c2C1=O` had a logP of 1.87.

Turning to `COC(=O)CN1C(=O)c2c(C)nc3ccc(Br)cc3c2C1=O`, the log partition coefficient (logP) turned out to be 2.53.

In turn, `COC(=O)CN1C(=O)c2c(C)nc3ccc(S(=O)(=O)N4CCOCC4)cc3c2C1=O` came in with a log partition coefficient (logP) of 0.404.

Take `COC(=O)CCN1C(=O)c2c(C)nc3ccccc3c2C1=O`: the logP is 1.92.

For the compound `COC(=O)CCN1C(=O)c2c(C)nc3ccc(F)cc3c2C1=O`, the lipophilicity (logP) is 2.06.

In turn, `COC(=O)CCN1C(=O)c2c(C)nc3ccc(Br)cc3c2C1=O` came in with a log partition coefficient (logP) of 2.71.

Take `COC(=O)CCN1C(=O)c2c(C)nc3ccc(S(=O)(=O)N4CCOCC4)cc3c2C1=O`: the logP is 0.585.

`Cc1ccccc1N1C(=O)c2c(C)nc3ccccc3c2C1=O` showed a lipophilicity (logP) of 4.54.

As to `Cc1ccccc1N1C(=O)c2c(C)nc3ccc(Br)cc3c2C1=O`, the log partition coefficient (logP) stood at 5.33.

As to `Cc1ccccc1N1C(=O)c2c(C)nc3ccc(S(=O)(=O)N4CCOCC4)cc3c2C1=O`, the logP is 3.21.

`Cc1nc2ccc(Br)cc2c2c1C(=O)N(c1c(C)nn(C)c1C)C2=O` showed a log partition coefficient (logP) of 4.43.

`Cc1nc2ccc(S(N)(=O)=O)cc2c2c1C(=O)N(c1c(C)nn(C)c1C)C2=O` gave a logP of 2.16.

`Cc1nc2ccc(S(=O)(=O)NCCO)cc2c2c1C(=O)N(c1c(C)nn(C)c1C)C2=O` had a log partition coefficient (logP) of 1.96.

Consider `COCCNS(=O)(=O)c1ccc2nc(C)c3c(c2c1)C(=O)N(c1c(C)nn(C)c1C)C3=O`, for which the logP amounted to 2.24.

Take `COC(=O)C(Cc1ccccc1)NS(=O)(=O)c1ccc2nc(C)c3c(c2c1)C(=O)N(c1c(C)nn(C)c1C)C3=O` (centres undefined): the logP came out at 4.2.

As for `Cc1nc2ccc(S(=O)(=O)N3CCCC3COc3ccccc3)cc2c2c1C(=O)N(c1c(C)nn(C)c1C)C2=O` (centres undefined), the logP was found to be 4.67.

Turning to `Cc1nc2ccc(S(=O)(=O)N3CCOCC3)cc2c2c1C(=O)N(c1c(C)nn(C)c1C)C2=O`, the lipophilicity (logP) was determined as 2.31.

For the compound `Cc1nc2ccc(C#N)cc2c2c1C(=O)N(c1c(C)nn(C)c1C)C2=O`, the lipophilicity (logP) came out at 3.68.

As for `Cc1nc2ccc(F)cc2c2c1C(=O)NC2=O`, the logP worked out at 2.05.

For `Cc1nc2ccc(Br)cc2c2c1C(=O)NC2=O`, the logP came to 2.71.

Take `Cc1nc2ccc(S(=O)(=O)N3CCOCC3)cc2c2c1C(=O)NC2=O`: the logP was 0.584.

In the case of `Cc1nc2ccc(Br)cc2c2c1C(=O)N(C)C2=O`, the logP is 2.95.

Compound `Cc1nc2ccc(S(=O)(=O)N3CCOCC3)cc2c2c1C(=O)N(C)C2=O` returned a logP of 0.83.
